From ChEMBL document CHEMBL4396877, “Design and Synthesis of TASIN Analogues Specifically Targeting Colorectal Cancer Cell Lines with Mutant Adenomatous Polyposis Coli (APC)” (J Med Chem, 2019) come the findings set out here.

Series [1] can be described thus: Volume of distribution in CD-1 mouse by LC-MS/MS analysis. Type of series: ADME. The following applies: in vivo.
Series [2] is described as follows: Cmax in CD-1 mouse large intestine at 10 mg/kg, iv after 10 to 1440 mins by LC/MS analysis. Type of series: ADME, organism-based. Also noted: dose 10 mg/kg, route intravenous.
Series [3] is described as follows: AUClast in CD-1 mouse Large intestine at 10 mg/kg, iv after 10 to 1440 mins by LC/MS analysis. Type of series: ADME, organism-based. The following applies: in vivo.
Series [4] in a line: Tmax in CD-1 mouse large intestine at 10 mg/kg, ip after 10 to 1440 mins by LC/MS analysis. Type of series: ADME, organism-based.
Series [5] can be described thus: AUClast in CD-1 mouse Large intestine at 10 mg/kg, ip after 10 to 1440 mins by LC/MS analysis. Type of series: ADME, organism-based. The following applies: in vivo.
Series [6] in a line: Cmax in CD-1 mouse large intestine at 10 mg/kg, ip after 10 to 1440 mins by LC/MS analysis. Type of series: ADME, organism-based. Details: dose 10 mg/kg, route intraperitoneal.
The nature of series [7]: AUClast in CD-1 mouse Large intestine at 5 mg/kg, iv after 10 to 1440 mins by LC/MS analysis. Type of series: ADME, organism-based. The note with it: in vivo.
A short description of series [8]: AUClast in CD-1 mouse Large intestine at 20 mg/kg, po after 10 to 1440 mins by LC/MS analysis. Type of series: ADME, organism-based. The following applies: in vivo.
A short description of series [9]: Tmax in CD-1 mouse large intestine at 5 mg/kg, iv after 10 to 1440 mins by LC/MS analysis. Type of series: ADME, organism-based.
Series [10] in a line: Cmax in CD-1 mouse large intestine at 5 mg/kg, iv after 10 to 1440 mins by LC/MS analysis. Type of series: ADME, organism-based. Details: dose 5 mg/kg, route intravenous.
Series [11] in a line: Tmax in CD-1 mouse large intestine at 20 mg/kg, po after 10 to 1440 mins by LC/MS analysis. Type of series: ADME, organism-based.
Series [12] is described as follows: Ratio of drug level in lung to plasma of CD-1 mouse at 5 mg/kg, iv. Type of series: ADME, organism-based.
Series [13] in a line: Cmax in CD-1 mouse large intestine at 20 mg/kg, po after 10 to 1440 mins by LC/MS analysis. Type of series: ADME, organism-based. Details: dose 20 mg/kg, route oral.
A short description of series [14]: Tmax in CD-1 mouse large intestine at 10 mg/kg, iv after 10 to 1440 mins by LC/MS analysis. Type of series: ADME, organism-based.

In series [1], `CC1CCN(C2CCN(S(=O)(=O)c3ccc(Cl)cc3)CC2)CC1` returned a Vd of 5.87 to 63 L/kg. For the same compound, the Cmax in series [2] is 1410 ng/g. Also, the AUClast in [3] stood at 262874 ng·min/g.

Take `COc1ccc(S(=O)(=O)N2CCC(N3CCC(C)CC3)CC2)cc1`: the Tmax in series [4] is 10 min. In addition, the AUClast in series [5] came to 737709 ng·min/g. Besides, the maximum concentration (Cmax) in series [6] is 10700 ng/g.

As to `CC1CCN(C2CCN(S(=O)(=O)c3ccc(OC(F)F)cc3)CC2)CC1`, the AUClast is 511878 ng·min/g in [7], 890969 ng·min/g in [8] and 790425 ng·min/g in series [5]. Moreover, the Tmax in [4], in series [9] and in series [11] was 10 min in each case. The same compound returned a distribution volume (Vd) in series [1] of 5.87 to 63 L/kg. The Cmax was 1820 ng/g in series [10], 10100 ng/g in series [6] and 3250 ng/g in [13]. Besides, the Kp in series [12] amounted to 5.7.

`C#CCC1CCN(C2CCN(S(=O)(=O)c3ccc(Br)cc3)CC2)CC1`: the Tmax in series [4] and in series [14] was 10 min each time. The same compound returned a Vd in series [1] of 5.87 to 63 L/kg. Moreover, the values for the AUClast in series [5] and in [3] were 633289 ng·min/g and 559037 ng·min/g, respectively. Further, the Cmax is 2970 ng/g in series [2] and 5750 ng/g in [6].

One may read the Vd as the apparent volume that relates the amount in the body to the concentration in plasma or blood. As usually defined, the Cmax is the maximum level reached in the sampled fluid or tissue. By Tmax is commonly meant the time at which the peak concentration occurs. Usually Kp stands for tissue or fluid exposure divided by exposure in the circulation.
